These results are taken from patent publication US10144755B2, “Substituted nucleosides, nucleotides and analogs thereof” (ALIOS BIOPHARMA, INC., priority 2012, dated 2018).

The test system of the first series is self-replicating, subgenomic HCV replicon in Huh-7 cells. In words: HCV replicon assay. It is filed as cell-based. The settings on record: Hepatitis C virus, Huh-7, 72 h.
For orientation: EC50 means the concentration at which the effect is half-maximal. `C#C[C@]1(F)[C@H](n2cnc3c(OCC)nc(N)nc32)O[C@](F)(COP(=O)(N[C@@H](C)C(=O)OC2CCCCC2)Oc2ccccc2)[C@H]1O` (single isomer, unassigned) [Compound 41] gave a concentration for a half-maximal effect (EC50) of 1 to 10 µM. The compound `C[C@H](NP(=O)(OC[C@@]1(F)O[C@@H](n2ccc(=O)[nH]c2=O)[C@](C)(O)C1O)Oc1ccccc1)C(=O)OCC(C)(C)C` (some centres unmarked) [Compound 5] yielded an EC50 below 1 µM. Still for that read-out and setting: the value for `C[C@H](NP(=O)(OC[C@@]1(F)O[C@@H](n2ccc(=O)[nH]c2=O)[C@](C)(F)[C@@H]1O)Oc1ccccc1)C(=O)OC1CCCCC1` (some centres unmarked) [Compound 30] was below 1 µM. On to `CC(C)OC(=O)[C@H](C)NP(=O)(OC[C@@]1(F)O[C@@H](n2ccc(=O)[nH]c2=O)[C@](C)(F)[C@@H]1O)Oc1ccccc1` (some centres unmarked) [Compound 31], for which the EC50 was below 1 µM. Regarding `CCOc1nc(N)nc2c1ncn2[C@@H]1O[C@](F)(CO[P@](=O)(N[C@@H](C)C(=O)OC2CCCCC2)Oc2ccccc2)[C@@H](O)[C@@]1(C)F` [Compound 32], the EC50 is below 1 µM. The compound `CCOc1nc(N)nc2c1ncn2[C@@H]1O[C@](F)(CO[P@@](=O)(N[C@@H](C)C(=O)OC2CCCCC2)Oc2ccccc2)[C@@H](O)[C@@]1(C)F` [Compound 33] showed an EC50 below 1 µM. `C#C[C@]1(O)[C@H](n2cnc3c(OCC)nc(N)nc32)O[C@](F)(CO[P@](=O)(N[C@@H](C)C(=O)OC2CCCCC2)Oc2ccccc2)[C@H]1O` [Compound 34] came in with an EC50 below 1 µM. The compound `C#C[C@]1(O)[C@H](n2cnc3c(OCC)nc(N)nc32)O[C@](F)(CO[P@@](=O)(N[C@@H](C)C(=O)OC2CCCCC2)Oc2ccccc2)[C@H]1O` [Compound 35] yielded an EC50 below 1 µM. As to `C#C[C@]1(F)[C@H](n2cnc3c(OCC)nc(N)nc32)O[C@](F)(COP(=O)(N[C@@H](C)C(=O)OC2CCCCC2)Oc2ccccc2)[C@H]1O` (some centres unmarked) [Compound 40], the EC50 was 1 to 10 µM. Turning to `CC(C)(C)C(=O)SCCOP(=O)(OCCSC(=O)C(C)(C)C)OC[C@@]1(F)O[C@@H](n2ccc(=O)[nH]c2=O)[C@](C)(O)[C@@H]1O` [Compound 58], the concentration for a half-maximal effect (EC50) is below 1 µM. The compound `CC(C)(C)C(=O)SCCOCCOP(=O)(OCCOCCSC(=O)C(C)(C)C)OC[C@@]1(F)O[C@@H](n2ccc(=O)[nH]c2=O)[C@](C)(O)[C@@H]1O` [Compound 59] gave an EC50 of 10 to 100 µM.

Compound `C=C[C@]1(O)[C@H](n2ccc(=O)[nH]c2=O)O[C@](F)(CO[P@@](=O)(N[C@@H](C)C(=O)OC(C)C)Oc2ccccc2)[C@H]1O` [Compound 77] yielded an EC50 of 1 to 10 µM.

For `CCOc1nc(N)nc2c1ncn2[C@@H]1O[C@](F)(COP(=O)(N[C@@H](C)C(=O)OC(C)C)Oc2cccc3ccccc23)[C@@H](O)[C@@]1(C)F` (some centres unmarked) [Compound 83], the EC50 was below 1 µM. In the case of `CCOc1nc(N)nc2c1ncn2[C@@H]1O[C@](F)(COP(=O)(N[C@@H](C)C(=O)OCC(C)C)Oc2cccc3ccccc23)[C@@H](O)[C@@]1(C)F` (some centres unmarked) [Compound 84], the EC50 was below 1 µM. The same measure, in the same setting: the value for `CCOc1nc(N)nc2c1ncn2[C@@H]1O[C@](F)(COP(=O)(N[C@@H](C)C(=O)OC(C)C)Oc2ccccc2)[C@@H](O)[C@@]1(C)F` (some centres unmarked) [Compound 85] was below 1 µM; that for `CCOc1nc(N)nc2c1ncn2[C@@H]1O[C@](F)(COP(=O)(N[C@@H](C)C(=O)OCC(C)C)Oc2ccccc2)[C@@H](O)[C@@]1(C)F` (some centres unmarked) [Compound 86] was below 1 µM.

Still in this series, the particulars now being: Hepatitis C virus; Huh-7 HCV replicon cells, luciferase reporter, 72 h; read-out: EC50.
On to `CCOc1nc(N)nc2c1ncn2[C@@H]1O[C@]2(F)CO[P@](=O)(OC(C)C)O[C@H]2[C@@]1(C)O` (single isomer, unassigned) [Compound 36], for which the half-maximal effective concentration (EC50) was below 1 µM. With `CC(C)OC(=O)OCOP(=O)(OCOC(=O)OC(C)C)OC[C@@]1(F)O[C@@H](n2ccc(=O)[nH]c2=O)[C@](C)(O)[C@@H]1O` [Compound 14], the EC50 was below 1 µM. Still for that read-out and setting: the same measure for `C[C@]1(F)[C@H](n2ccc(N)nc2=O)O[C@](F)(CO)[C@H]1O` [Compound 27]: 10 to 100 µM; for `C[C@]1(F)[C@H](n2ccc(N)nc2=O)O[C@](F)(COP(=O)(O)OP(=O)(O)OP(=O)(O)O)[C@H]1O` [Compound 28]: below 1 µM. Same read-out and setting: the value for `C[C@]1(F)[C@H](n2cnc3c(=O)[nH]c(N)nc32)O[C@](F)(CO)[C@H]1O` [Compound 29] was 10 to 100 µM. The same measure, in the same setting: the value for `CCOc1nc(N)nc2c1ncn2[C@@H]1O[C@]2(F)CO[P@@](=O)(OC(C)C)O[C@H]2[C@@]1(C)O` [Compound 37] was below 1 µM; that for `CCOc1nc(N)nc2c1ncn2[C@@H]1O[C@]2(F)CO[P@@](=O)(OC(C)C)O[C@H]2[C@@]1(C)F` [Compound 43] was below 1 µM.

On to `CC(C)OC(=O)OCOP(=O)(OCOC(=O)OC(C)C)OC[C@@]1(F)O[C@@H](n2cnc3c(=O)[nH]c(N)nc32)[C@](C)(O)[C@@H]1O` [Compound 49], for which the EC50 was below 1 µM. As for `C#C[C@]1(O)[C@H](n2ccc(=O)[nH]c2=O)O[C@](F)(COP(=O)(OCOC(=O)OC(C)C)OCOC(=O)OC(C)C)[C@H]1O` [Compound 51], the EC50 lay within 1 to 10 µM. The same measure, in the same setting: the value for `CCOc1nc(N)nc2c1ncn2[C@@H]1O[C@](F)(COP(=O)(OCOC(=O)OC(C)C)OCOC(=O)OC(C)C)[C@@H](O)[C@@]1(C)O` [Compound 52] was below 1 µM; that for `CCOc1nc(N)nc2c1ncn2[C@@H]1O[C@](F)(COP(=O)(OCOC(=O)OC(C)C)OCOC(=O)OC(C)C)[C@@H](O)[C@@]1(C)F` [Compound 53] was below 1 µM. As for `CC(C)(C)C(=O)OCOP(=O)(OCOC(=O)C(C)(C)C)OC[C@@]1(F)O[C@@H](n2ccc(=O)[nH]c2=O)[C@](C)(O)[C@@H]1O` [Compound 55], the concentration giving a half-maximal response (EC50) was below 1 µM.

The series is the same for the next values; noted with them: read-out: EC50.
As to `CCOc1nc(N)nc2c1ncn2[C@@H]1O[C@]2(F)CO[P@](=O)(OC(C)C)O[C@H]2[C@@]1(C)F` [Compound 42], the concentration giving a half-maximal response (EC50) is below 1 µM.

Another series deals with NS5B570-Con1 (Delta-21) (Hepatitis C virus genotype 1b, UniProt Q9WMX2). In words: biochemical. To be noted: 50 nM NS5B570-Con1, cIRES RNA template, 2 h at 37° C., mean of several independent experiments. It is filed as biochemical, HCV (Con-1 strain).
One may read the IC50 as the midpoint of a concentration-inhibition curve. `C#C[C@]1(F)[C@H](n2cnc3c(=O)[nH]c(N)nc32)O[C@](F)(COP(=O)(O)OP(=O)(O)OP(=O)(O)O)[C@H]1O` [Compound 44] had an IC50 below 1 µM.

Still in this series, the particulars now being: 50 nM NS5B570-Con1, cIRES RNA template, 2 h at 37° C., mean of several independent experiments; read-out: IC50.
In the case of `C[C@]1(Cl)[C@H](n2ccc(=O)[nH]c2=O)O[C@](F)(COP(=O)(O)OP(=O)(O)OP(=O)(O)O)[C@H]1O` [Compound 46], the IC50 is below 1 µM.

The series is the same for the next values; noted with them: IC50, 50 nM NS5B570-Con1, cIRES RNA template, 2 h at 37° C., mean of several independent experiments.
As to `C[C@]1(O)[C@H](n2ccc(=O)[nH]c2=O)O[C@](F)(COP(O)(=S)OP(=O)(O)OP(=O)(O)O)[C@H]1O` (single isomer, unassigned) [Compound 7a], the IC50 was below 1 µM.

In the case of `C[C@]1(O)[C@H](n2ccc(=O)[nH]c2=O)O[C@](F)(COP(O)(=S)OP(=O)(O)OP(=O)(O)O)[C@H]1O` (single isomer, unassigned) [Compound 7b], the IC50 is 1 to 10 µM.

On to `C#C[C@]1(O)[C@H](n2cnc3c(=O)[nH]c(N)nc32)O[C@](F)(COP(=O)(O)OP(=O)(O)OP(=O)(O)O)[C@H]1O` [Compound 9], for which the IC50 is below 1 µM. `C#C[C@]1(F)[C@H](n2cnc3c(=O)[nH]c(N)nc32)O[C@](F)(COP(=O)(O)OP(=O)(O)OP(=O)(O)O)[C@H]1O` [Compound 69]: the IC50 was below 1 µM. Compound `O=c1ccn([C@@H]2O[C@](F)(COP(=O)(O)OP(=O)(O)OP(=O)(O)O)[C@@H](O)[C@]2(O)CF)c(=O)[nH]1` [Compound 76] showed an IC50 below 1 µM.

In a further series the test system is mitochondrial protein synthesis (COX I / SDH A) in HepG2 cells.
Assay: not given
Details: not given
Turning to `COc1nc(N)nc2c1ncn2[C@@H]1O[C@H](COP(=O)(N[C@@H](C)C(=O)OCC(C)(C)C)Oc2cccc3ccccc23)[C@@H](O)[C@@]1(C)O` (some centres unmarked) [INX-08189/BMS-986094], the “inhibition of mitochondrial protein synthesis (COX I/SDH A ratio)” value (shortened to “inhibition … (COX I/SDH A ratio)”) is reported as “strongly inhibit mitochondrial protein synthesis”. As to `Cc1cn([C@H]2C=C[C@@H](CO)O2)c(=O)[nH]c1=O` [d4T], the “inhibition … (COX I/SDH A ratio)” value is given as “not to inhibit mitochondrial protein synthesis at concentrations up to 100 μM”. Take `Nc1ccn([C@H]2CC[C@@H](CO)O2)c(=O)n1` [ddC]: the “inhibition … (COX I/SDH A ratio)” value is reported as “strongly inhibit mitochondrial protein synthesis”.

The target in the next series is human mitochondrial RNA polymerase (Homo sapiens, UniProt O00411). In words: DdRp assay: incorporation of nucleotides by human mitochondrial RNA polymerase (HMRP). The settings on record: single turnover, 100 μM NTP, 30° C., 1 minute; product band on gel.
Sequence of human mitochondrial RNA polymerase (O00411 42-1230): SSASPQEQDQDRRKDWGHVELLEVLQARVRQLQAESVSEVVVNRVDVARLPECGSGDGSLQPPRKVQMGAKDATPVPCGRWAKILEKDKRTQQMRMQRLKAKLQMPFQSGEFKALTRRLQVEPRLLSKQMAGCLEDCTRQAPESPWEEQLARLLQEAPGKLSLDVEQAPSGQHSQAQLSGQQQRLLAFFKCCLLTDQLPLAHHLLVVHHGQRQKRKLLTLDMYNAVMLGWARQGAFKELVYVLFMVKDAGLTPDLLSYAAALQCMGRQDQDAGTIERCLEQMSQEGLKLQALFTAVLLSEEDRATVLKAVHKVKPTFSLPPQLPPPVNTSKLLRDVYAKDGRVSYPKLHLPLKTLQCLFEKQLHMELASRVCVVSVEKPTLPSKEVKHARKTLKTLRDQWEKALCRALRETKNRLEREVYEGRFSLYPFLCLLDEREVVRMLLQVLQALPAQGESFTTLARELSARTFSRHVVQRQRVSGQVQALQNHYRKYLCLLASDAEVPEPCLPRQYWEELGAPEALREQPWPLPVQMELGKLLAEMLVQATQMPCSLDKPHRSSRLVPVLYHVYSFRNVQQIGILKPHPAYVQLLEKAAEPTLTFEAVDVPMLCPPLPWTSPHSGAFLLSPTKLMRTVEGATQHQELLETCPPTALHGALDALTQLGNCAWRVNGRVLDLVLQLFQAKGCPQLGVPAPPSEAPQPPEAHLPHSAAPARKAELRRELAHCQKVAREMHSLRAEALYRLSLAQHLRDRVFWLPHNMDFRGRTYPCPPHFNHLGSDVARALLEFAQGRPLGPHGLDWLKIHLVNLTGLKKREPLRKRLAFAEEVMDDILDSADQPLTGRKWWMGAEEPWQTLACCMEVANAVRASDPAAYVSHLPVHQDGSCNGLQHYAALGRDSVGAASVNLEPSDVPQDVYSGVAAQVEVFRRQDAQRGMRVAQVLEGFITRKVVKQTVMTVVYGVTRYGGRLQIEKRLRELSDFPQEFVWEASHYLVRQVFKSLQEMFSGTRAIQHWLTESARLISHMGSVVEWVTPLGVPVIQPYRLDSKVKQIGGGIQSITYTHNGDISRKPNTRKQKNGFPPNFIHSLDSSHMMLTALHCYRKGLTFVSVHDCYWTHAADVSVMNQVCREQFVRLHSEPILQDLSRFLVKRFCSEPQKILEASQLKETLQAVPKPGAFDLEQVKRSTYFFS
`C[C@@]1(F)[C@H](O)[C@@H](COP(=O)(O)OP(=O)(O)OP(=O)(O)O)O[C@H]1n1ccc(=O)[nH]c1=O` [2′-Me-2′-F-UTP]: the “incorporation by HMRP, template for UTP analogs (FIG. 10)” value is given as “not efficient substrates for incorporation by HMRP”. Consider `Nc1ncnc2c1ncn2[C@@H]1O[C@H](COP(=O)(O)OP(=O)(O)OP(=O)(O)O)[C@@H](O)[C@H]1O` [ATP], for which the “incorporation by HMRP, template for GTP analogs (FIG. 11)” value is on record as “poor substrate for incorporation”.
